Reference: patent publication US4751302A, “Indazole derivatives” (priority 1982, dated 1988)

Columns and labels:
[1] = in vivo; settings: mouse, ip, intraperitoneal, hydrochloride, male ddy mice
[2] = test system: Carrageenin edema in rat's paw; assay: Carrageenin Edema Test in Rat's Paw (anti-inflammatory activity, Table 1); format: in vivo; settings: 100 mg/kg oral, hydrochloride, rat
Experimental: An anti-inflammatory activity was measured by orally administering 100 mg/kg of a hydrochloride of the indazole derivative of this invention as set forth in Table 1 to an animal in accordance with the standard method of Carrageenin Edema Test in Rat's Paw described in C. A. Winter et al., Proc. Soc. Exp. Biol. Med., 111, 544 (1962).

| SMILES | LD50 [1] | inhibition in vivo at 100 mg/kg [2] |
| --- | --- | --- |
| CCN(CC)CCCNc1n[nH]c2c(Cl)cccc12 [(48), 3-(3-Diethylaminopropylamino)-7-chloroindazole] | 291 mg/kg | 57% |
| CCN(CC)CCCNc1n[nH]c2ccc(N)cc12 [(49), 3-(3-Diethylaminopropylamino)-5-aminoindazole] | 244 mg/kg | 55% |
| CCN(CC)CCCNc1n[nH]c2ccc(OC)cc12 [(50), 3-(3-Diethylaminopropylamino)-5-methoxyindazole] | 200 mg/kg | 52% |
| CCN(CC)CCCNc1n[nH]c2ccc(C)cc12 [(51), 3-(3-Diethylaminopropylamino)-5-methylindazole] | 231 mg/kg | 60% |
| CCCCN(CCCC)CCCNc1n[nH]c2ccc(Cl)cc12 [(52), 3-(3-Di-n-butylaminopropylamino)-5-chloroindazole] | 211 mg/kg | 61% |
| CC(CCNc1n[nH]c2ccc(Cl)cc12)N(C)C (stereo not drawn) [(53), 3-(3-Dimethylaminobutylamino)-5-chloroindazole] | 313 mg/kg | 48% |
| CCN(CC)C(CCNc1n[nH]c2ccc(Cl)cc12)CC(C)C (stereo not drawn) [(54), 3-(3-Diethylamino-5-methylhexylamino)-5-chloroindazole] | 251 mg/kg | 46% |
| Clc1ccc2[nH]nc(NCCCN3CCCCC3)c2c1 [(55), 3-(3-Piperidinopropylamino)-5-chloroindazole] | 133 mg/kg | 47% |
| Clc1ccc2[nH]nc(NCCCCCCN3CCCCC3)c2c1 [(56), 3-(6-Piperidinohexylamino)-5-chloroindazole] | 145 mg/kg | 29% |
| CC(CCNc1n[nH]c2ccc(Cl)cc12)N1CCCCC1 (stereo not drawn) [(57), 3-(3-Piperidinobutylamino)-5-chloroindazole] | 173 mg/kg | 54% |
| CC(C)CC(CCNc1n[nH]c2ccc(Cl)cc12)N1CCCCC1 (stereo not drawn) [(58), 3-(3-Piperidino-5-methylhexylamino)-5-chloroindazole] | 180 mg/kg | 40% |
| CC1CCCCN1CCCNc1n[nH]c2ccc(Cl)cc12 (stereo not drawn) [(59), 3-[3-(2-Methylpiperidino)propylamino]-5-chloroindazole] | 210 mg/kg | 63% |
| CC1CCCC(C)N1CCCNc1n[nH]c2ccc(Cl)cc12 (stereo not drawn) [(60), 3-[3-(2,6-Dimethylpiperidino)propylamino]-5-chloroindazole] | 310 mg/kg | 36% |
| OC1CCN(CCCNc2n[nH]c3ccc(Cl)cc23)CC1 [(61), 3-[3-(4-Hydroxypiperidino)propylamino]-5-chloroindazole] | 210 mg/kg | 46% |
| Clc1ccc2[nH]nc(NCCCN3CCC(Cl)CC3)c2c1 [(62), 3-[3-(4-Chloropiperidino)propylamino]-5-chloroindazole] | 312 mg/kg | 65% |
| Clc1ccc2[nH]nc(NCCCN3CCCCCC3)c2c1 [(63), 3-(3-Homopiperidinopropylamino)-5-chloroindazole] | 331 mg/kg | 57% |
| CN1CCN(CCCNc2n[nH]c3ccc(Cl)cc23)CC1 [(64), 3-[3-(4-Methylpiperadino)propylamino]-5-chloroindazole] | 229 mg/kg | 29% |
| Clc1ccc2[nH]nc(NCCCN3CCCC3)c2c1 [(65), 3-(3-Pyrrolidinopropylamino)-5-chloroindazole] | 136 mg/kg | 36% |
| Clc1ccc2[nH]nc(NCCCN3CCOCC3)c2c1 [(66), 3-(3-Morpholinopropylamino)-5-chloroindazole] | 246 mg/kg | 46% |
| CCN(CC)CCCNc1n[nH]c2cccc(O)c12 [(67), 3-(3-Diethylaminopropylamino)-4-hydroxyindazole] | 255 mg/kg | 55% |
| CCN(CC)CCCNc1n[nH]c2ccc(O)cc12 [(68), 3-(3-Diethylaminopropylamino)-5-hydroxyindazole] | 352 mg/kg | 52% |
| CCN(CC)CCCNc1n[nH]c2cc(O)ccc12 [(69), 3-(3-Diethylaminopropylamino)-6-hydroxyindazole] | 151 mg/kg | 51% |
| CCN(CC)CCCNc1n[nH]c2c(O)cccc12 [(70), 3-(3-Diethylaminopropylamino)-7-hydroxyindazole] | 156 mg/kg | 56% |
| CCN(CC)CCCNc1n[nH]c2ccc(I)cc12 [(71), 3-(3-Diethylaminopropylamino)-5-iodoindazole] | 256 mg/kg | 56% |

| SMILES | LD50 [1] | inhibition in vivo at 100 mg/kg [2] |
| --- | --- | --- |
| CCN(CC)CCCNc1n[nH]c2c(I)cccc12 [(72), 3-(3-Diethylaminopropylamino)-7-iodoindazole] | 253 mg/kg | 53% |
| CCN(CC)CCCNc1n[nH]c2c(N)cc(N)cc12 [(73), 3-(3-Diethylaminopropylamino)-5,7-diaminoindazole] | 355 mg/kg | 55% |
| CCCCN(CCCC)CCCNc1n[nH]c2ccc(O)cc12 [(74), 3-(3-Di-n-butylaminopropylamino)-5-hydroxyindazole] | 253 mg/kg | 53% |
| CC(CCNc1n[nH]c2ccc(O)cc12)N(C)C (stereo not drawn) [(75), 3-(3-Dimethylaminobutylamino)-5-hydroxyindazole] | 234 mg/kg | 34% |
| CCN(CC)C(CCNc1n[nH]c2ccc(O)cc12)CC(C)C (stereo not drawn) [(76), 3-(3-Diethylamino-5-methylhexylamino)-5-hydroxyindazole] | 146 mg/kg | 46% |
| Oc1ccc2[nH]nc(NCCCN3CCCCC3)c2c1 [(77), 3-(3-Piperidinopropylamino)-5-hydroxyindazole] | 251 mg/kg | 51% |
| Oc1ccc2[nH]nc(NCCCCCCN3CCCCC3)c2c1 [(78), 3-(6-Piperidinohexylamino)-5-hydroxyindazole] | 225 mg/kg | 25% |
| CC(CCNc1n[nH]c2ccc(O)cc12)N1CCCCC1 (stereo not drawn) [(79), 3-(3-Piperidinobutylamino)-5-hydroxyindazole] | 146 mg/kg | 46% |
| CC(C)CC(CCNc1n[nH]c2ccc(O)cc12)N1CCCCC1 (stereo not drawn) [(80), 3-(3-Piperidino-5-methylhexylamino)-5-hydroxyindazole] | 332 mg/kg | 32% |
| CC1CCCCN1CCCNc1n[nH]c2ccc(O)cc12 (stereo not drawn) [(81), 3-[3-(2-Methylpiperidino)propylamino]-5-hydroxyindazole] | 147 mg/kg | 47% |
| CC1CCCC(C)N1CCCNc1n[nH]c2ccc(O)cc12 (stereo not drawn) [(82), 3-[3-(2,6-Dimethylpiperidino)propylamino]-5-hydroxyindazole] | 230 mg/kg | 30% |
| Oc1ccc2[nH]nc(NCCCN3CCC(O)CC3)c2c1 [(83), 3-[3-(4-Hydroxypiperidino)propylamino]-5-hydroxyindazole] | 134 mg/kg | 34% |
| Oc1ccc2[nH]nc(NCCCN3CCC(Cl)CC3)c2c1 [(84), 3-[3-(4-Chloropiperidino)propylamino]-5-hydroxyindazole] | 163 mg/kg | 63% |
| Oc1ccc2[nH]nc(NCCCN3CCCCCC3)c2c1 [(85), 3-(3-Homopiperidinopropylamino)-5-hydroxyindazole] | 135 mg/kg | 35% |
| CN1CCN(CCCNc2n[nH]c3ccc(O)cc23)CC1 [(86), 3-[3-(4-Methylpiperadino)propylamino]-5-hydroxyindazole] | 123 mg/kg | 23% |
| Oc1ccc2[nH]nc(NCCCN3CCCC3)c2c1 [(87), 3-(3-Pyrrolidinopropylamino)-5-hydroxyindazole] | 238 mg/kg | 38% |
| Oc1ccc2[nH]nc(NCCCN3CCOCC3)c2c1 [(88), 3-(3-Morpholinopropylamino)-5-hydroxyindazole] | 346 mg/kg | 46% |
| CCN(CC)CCCNc1nn(CCCN(CC)CC)c2cccc(Cl)c12 [(89), 1-(3-Diethylaminopropyl)-3-(3-diethylaminopropylamino)-4-chloroindazole] | 214 mg/kg | 30% |
| CCN(CC)CCCNc1nn(CCCN(CC)CC)c2ccc(Cl)cc12 [(90), 1-(3-Diethylaminopropyl)-3-(3-diethylaminopropylamino)-5-chloroindazole] | 223 mg/kg | 29% |
| CCN(CC)CCCNc1nn(CCCN(CC)CC)c2cc(Cl)ccc12 [(91), 1-(3-Diethylaminopropyl)-3-(6-diethylaminopropylamino)-6-chloroindazole] | 251 mg/kg | 22% |
| CCN(CC)CCCNc1nn(CCCN(CC)CC)c2c(Cl)cccc12 [(92), 1-(3-Diethylaminopropyl)-3-(3-diethylaminopropylamino)-7-chloroindazole] | 211 mg/kg | 32% |
| CCN(CC)CCCNc1nn(CCCN(CC)CC)c2ccc(N)cc12 [(93), 1-(3-Diethylaminopropyl)-3-(3-diethylaminopropylamino)-5-aminoindazole] | 191 mg/kg | 28% |
| CCN(CC)CCCNc1nn(CCCN(CC)CC)c2ccc(OC)cc12 [(94), 1-(3-Diethylaminopropyl)-3-(3-diethylaminopropylamino)-5-methoxyindazole] | 301 mg/kg | 30% |
| CCN(CC)CCCNc1nn(CCCN(CC)CC)c2ccc(C)cc12 [(95), 1-(3-Diethylaminopropyl)-3-(3-diethylaminopropylamino)-5-methylindazole] | 211 mg/kg | 29% |
